Values after ≈ are worked out from the molar mass of the structure shown. Counter-ions that a name gives are not always drawn.
How the values were obtained:
[1] = Volatility of carvacrol with different admixtures (spots on glass plate at 35° C., recovery); assay type: physicochemical; conditions: for V.C. 30 min. (volatile carvacrol) / V.C. 3 h (volatile carvacrol): carvacrol 20%, remainder ethanol, 35° C.
Procedure: For testing whether carvacrol is suitable for transdermal systems or whether carvacrol is contained sufficiently long in transdermal systems, the volatility was investigated with different admixtures. The volatility is important, in order to keep the active ingredients sufficiently long in solution in the film.
For the measurement, two spots of 5 μl of each formulation, containing 1 mg carvacrol, were applied per point of time on a glass plate kept at 35° C. Two spots of a respective point of time (30 min. and 3 h after application of the spot) were wiped off with a cotton applicator. The amount of wiped-off carvacrol was determined. The difference to 100% intended recovery rate is the volatile carvacrol. The abbreviation V. refers to “volatile”, the abbreviation C. refers to carvacrol. The share of carvacrol is always 20%, the remainder relative to the sum of carvacrol and the additive is ethanol. Amounts are given in vol.-%.

[2] = Solubilities of active ingredients in carvacrol or carvacrol-containing (or thymol) formulations; assay type: physicochemical
Text: The mixing ratios are always given as volume proportions. Liqui-Patch® are formulations of ready-to-use mixtures of polymers and other additives for making transdermal systems and are obtainable from the company epinamics GmbH. In the formulation employed here, Liqui-Patch® contains the following components: mixture of 10 g triethyl citrate, 100 g water (demineralized or medical), 100 g DynamX®, 790 g ethanol.

[3] = Solubilities of clotrimazole and testosterone in different solvents; conditions: for Solubilities in solvents with compounds employed according to the invention, compared with other solvents: Table II; for solubility: organic solvent or mixture
[4] = additive Ethylmethyl ketone 10%
[5] = additive Ethylmethyl ketone 20%
[6] = additive Isopropyl myristate 10%
[7] = additive Isopropyl myristate 20%
[8] = additive Propylene carbonate 10%
[9] = additive Propylene carbonate 20%
[10] = additive Propylene glycol 10%/menthol 5%
[11] = additive Propylene glycol 20%/menthol 10%
[12] = solvent: Carvacrol/Liqui-Patch (1:1), volume proportions

With `Cc1ccc(C(C)C)cc1O` [carvacrol] the “V.C. 30 min. (volatile carvacrol)” value [1, 4] was 33%, the “V.C. 3 h (volatile carvacrol)” value [1, 4] was 100% and the “V.C. 30 min. (volatile carvacrol)” value [1, 5] was 45%. The “V.C. 3 h (volatile carvacrol)” value [1, 5] was 100%, the “V.C. 30 min. (volatile carvacrol)” value ([1]; additive Glycerol 10%) was 28% and the “V.C. 3 h (volatile carvacrol)” value ([1]; additive Glycerol 10%) was 96%. For the same molecule, the “V.C. 30 min. (volatile carvacrol)” value ([1]; additive Glycerol 20%) was 33%, the “V.C. 3 h (volatile carvacrol)” value ([1]; additive Glycerol 20%) was 88% and the “V.C. 30 min. (volatile carvacrol)” value [1, 6] was 26%. The “V.C. 3 h (volatile carvacrol)” value [1, 6] was 46%, the “V.C. 30 min. (volatile carvacrol)” value [1, 7] was 24% and the “V.C. 3 h (volatile carvacrol)” value [1, 7] was 32%. For the same molecule, the “V.C. 30 min. (volatile carvacrol)” value [1, 8] was 29%, the “V.C. 3 h (volatile carvacrol)” value [1, 8] was 49% and the “V.C. 30 min. (volatile carvacrol)” value [1, 9] was 11%. The “V.C. 3 h (volatile carvacrol)” value [1, 9] was 24%, the “V.C. 30 min. (volatile carvacrol)” value [1, 10] was 40% and the “V.C. 3 h (volatile carvacrol)” value [1, 10] was 97%. The “V.C. 30 min. (volatile carvacrol)” value ([1]; additive Propylene glycol 10%) was 40%, the “V.C. 3 h (volatile carvacrol)” value ([1]; additive Propylene glycol 10%) was 51% and the “V.C. 30 min. (volatile carvacrol)” value [1, 11] was 0%. The “V.C. 3 h (volatile carvacrol)” value [1, 11] was 46%, the “V.C. 30 min. (volatile carvacrol)” value ([1]; additive Propylene glycol 20%) was 1% and the “V.C. 3 h (volatile carvacrol)” value ([1]; additive Propylene glycol 20%) was 33%. For the same molecule, the “V.C. 30 min. (volatile carvacrol)” value ([1]; additive Water 10%) was 18%, the “V.C. 3 h (volatile carvacrol)” value ([1]; additive Water 10%) was 94% and the “V.C. 30 min. (volatile carvacrol)” value ([1]; additive Water 20%) was 0%. For the same molecule, the “V.C. 3 h (volatile carvacrol)” value ([1]; additive Water 20%) was 94% and the Volatility of carvacrol ([1]; by propylene carbonate, propylene glycol, or isopropyl myristate as additive) was “reduced”.

`O=C(O)c1cc(=O)c2c(OCC(O)COc3cccc4oc(C(=O)O)cc(=O)c34)cccc2o1` [Cromoglicic acid-Na, Cromoglicic acid disodium salt] gave a Dissolved amount ([2]; solvent: Carvacrol) of 50 mg/mL.

With `CC[C@H]1OC(=O)[C@H](C)[C@@H](O[C@H]2C[C@@](C)(OC)[C@@H](O)[C@H](C)O2)[C@H](C)[C@@H](O[C@@H]2O[C@H](C)C[C@H](N(C)C)[C@H]2O)[C@](C)(O)C[C@@H](C)C(=O)[C@H](C)[C@@H](O)[C@]1(C)O` [Erythromycin] the Dissolved amount ([2]; solvent: Carvacrol) was 110 mg/mL.

Molecule `O=c1[nH]cc(F)c(=O)[nH]1` [5-Fluorouracil] has a Dissolved amount ([2]; solvent: Carvacrol) of 25 mg/mL.

Work on `C=C(c1ccc(C(=O)O)cc1)c1cc2c(cc1C)C(C)(C)CCC2(C)C` [Bexarotene] yielded a Dissolved amount ([2]; solvent: Carvacrol) of 60 mg/mL and a Dissolved amount [2, 12] of 30 mg/mL.

With `Nc1cc(=O)[nH]c(=O)[nH]1` [6-Aminouracil] the Dissolved amount ([2]; solvent: Carvacrol) was <50 mg/mL.

With `O=c1[nH]c(=O)c2[nH]c(=O)[nH]c2[nH]1` [Uric acid] the Dissolved amount ([2]; solvent: Carvacrol) was <20 mg/mL.

In the case of `Clc1ccccc1C(c1ccccc1)(c1ccccc1)n1ccnc1` [Clotrimazole], the Dissolved amount ([2]; solvent: Carvacrol) is reported as 410 mg/mL and the “Solubilities in solvents with compounds employed according to the invention, compared with other solvents” value [3] is reported as “considerably higher”.

Work on `CCn1cc(C(=O)O)c(=O)c2ccc(C)nc21` [Nalidixic Acid] yielded a Dissolved amount ([2]; solvent: Carvacrol) of 108 mg/mL.

For `CC1=CC(=O)C(C(C)C)=CC1=O` [Thymoquinone], the Dissolved amount ([2]; solvent: Carvacrol) was >100 mg/mL.

`Cl.Cl.Fc1ccc(C(c2ccc(F)cc2)N2CCN(C/C=C/c3ccccc3)CC2)cc1` [Flunarizine*2HCl] showed a Dissolved amount ([2]; solvent: Carvacrol) of 60 mg/mL.

With `C[C@]12CC[C@H]3[C@@H](CCC4=CC(=O)CC[C@@]43C)[C@@H]1CC[C@@H]2O` [Testosterone] the Dissolved amount ([2]; solvent: Carvacrol) was 220 mg/mL, the “Solubilities in solvents with compounds employed according to the invention, compared with other solvents” value [3] was “considerably higher” and the solubility ([3]; solvent: 4-Methyl-Anisole) was < 250 mg/mL. For the same molecule, the solubility ([3]; solvent: 20% 4MS/80% EtOH) was 335 mg/mL (≈ 1160 mM), the solubility ([3]; solvent: 20% (S)-(—)-Limonene/80% Ethanol) was 200 mg/mL (≈ 693 mM) and the solubility ([3]; solvent: 20% Anisole/80% EtOH) was 500 mg/mL (≈ 1730 mM). For the same molecule, the solubility ([3]; solvent: 20% Carvacrol/80% Acetone) was 170 mg/mL (≈ 589 mM), the solubility ([3]; solvent: 20% Carvacrol/80% EtOH) was 260 mg/mL (≈ 901 mM) and the solubility ([3]; solvent: 20% Carvacrol/80% LP (Liqui-Patch)) was 250 mg/mL (≈ 867 mM). For the same molecule, the solubility ([3]; solvent: 20% Gamma-Terpinene/80% ethalol) was 200 mg/mL (≈ 693 mM), the solubility ([3]; solvent: 20% Guaiacol/80% EtOH) was 300 mg/mL (≈ 1040 mM) and the solubility ([3]; solvent: 20% Guaiacol/80% LP (Liqui-Patch)) was 270 mg/mL (≈ 936 mM). For the same molecule, the solubility ([3]; solvent: 20% Thymol/80% Acetone) was 180 mg/mL (≈ 624 mM), the solubility ([3]; solvent: 20% Thymol/80% EtOH) was 330 mg/mL (≈ 1140 mM) and the solubility ([3]; solvent: 20% Thymol/80% LP (Liqui-Patch)) was 300 mg/mL (≈ 1040 mM). The solubility ([3]; solvent: 20% p-Cymene/80% Ethanol) was 300 mg/mL (≈ 1040 mM), the solubility ([3]; solvent: (S)-(—)-Limonene) was < 100 mg/mL and the solubility ([3]; solvent: Acetone) was 60 mg/mL (≈ 208 mM). For the same molecule, the solubility ([3]; solvent: Anisole) was < 100 mg/mL, the solubility ([3]; solvent: Ethanol) was 90 mg/mL (≈ 312 mM) and the solubility ([3]; solvent: Gamma-Terpinene) was < 100 mg/mL. For the same molecule, the solubility ([3]; solvent: Guaiacol) was 270 mg/mL (≈ 936 mM), the solubility ([3]; solvent: LP (Liqui-Patch)) was 190 mg/mL (≈ 659 mM) and the solubility ([3]; solvent: Methyl salicylate (4MS)) was < 100 mg/mL. For the same molecule, the solubility ([3]; solvent: carvacrol) was 230 mg/mL (≈ 797 mM) and the solubility ([3]; solvent: p-Cymene) was < 100 mg/mL.

For `COc1cc(/C=C/C(=O)CC(=O)/C=C/c2ccc(O)c(OC)c2)ccc1O` [Curcumin], the Dissolved amount ([2]; solvent: Carvacrol) was 20 mg/mL.

`CC(=O)N1CCN(c2ccc(OCC3COC(Cn4ccnc4)(c4ccc(Cl)cc4Cl)O3)cc2)CC1` (stereo not drawn) [Ketoconazole] showed a Dissolved amount ([2]; solvent: Carvacrol) of 140 mg/mL.

Molecule `CCCCCCCCCCCC(=O)O` [Lauric acid] has a Dissolved amount ([2]; solvent: Carvacrol) of 500 mg/mL and a Dissolved amount [2, 12] of 250 mg/mL.

`CN1C2CCCC1CC(NC(=O)c1nn(C)c3ccccc13)C2` (stereo not drawn) [Granisetron] gave a Dissolved amount ([2]; solvent: Carvacrol 62.5% Methanol 31.25% 2M NaOH/H2O 6.25%) of 71.25 mg/mL.

With `O=c1ccc2ccccc2o1` [Coumarin] the Dissolved amount ([2]; solvent: Carvacrol) was >200 mg/mL.

With `O=C(O)c1ccccc1O` [Salicylic acid] the Dissolved amount ([2]; solvent: Carvacrol/Methanol (1:1), volume proportions) was 240 mg/mL.

With `Oc1cccc2cccnc12` [8-Hydroxyquinoline] the Dissolved amount ([2]; solvent: Carvacrol) was >100 mg/mL.

In the case of `O=C(CCCN1CCC(O)(c2ccc(Cl)cc2)CC1)c1ccc(F)cc1` [Haloperidol], the Dissolved amount ([2]; solvent: Carvacrol) is reported as 100 mg/mL.

Molecule `CN(C/C=C/C#CC(C)(C)C)Cc1cccc2ccccc12` [Terbinafine] has a Dissolved amount ([2]; solvent: Thymol/Ethanol (1:1)) of 406 mg/mL.

Molecule `O=c1oc2c(O)c(O)cc3c(=O)oc4c(O)c(O)cc1c4c23` [Ellagic acid] has a Dissolved amount ([2]; solvent: Carvacrol) of 60 mg/mL.

Source: patent US20160317661A1, “DERMAL AND/OR TRANSDERMAL PHARMACEUTICAL COMPOSITION CONTAINING A TERPENOID COMPOUND” (EPINAMICS GMBH, priority 2013, published 2016)
